Results as given in the NIST ThermoML archive (doi:10.1016/j.jct.2012.08.023).
Numbers after ± are expanded uncertainties.

Test: mn = molality of the nth substance listed, in mol/kg
Settings: 101.3 kPa, Liquid; for speed of sound: Single path-length method; for mass density: Vibrating tube method

CCCCn1cc[n+](C)c1.[Br-] [1-butyl-3-methylimidazolium bromide] + O
Settings | mass density, 288.15 K [kg/m3] | mass density, 298.15 K [kg/m3] | mass density, 308.15 K [kg/m3] | speed of sound, 288.15 K [m/s] | speed of sound, 298.15 K [m/s] | speed of sound, 308.15 K [m/s]
m1 = 0.0915 | 996.409 ± 0.31 | 996.531 ± 0.31 | 991.528 ± 0.31 | 1490.7 ± 1.4 | 1516.7 ± 1.4 | 1535.5 ± 1.4
m1 = 0.0969 | 1001.56 ± 0.52 | 999.293 ± 0.52 | 996.365 ± 0.52 | 1489.1 ± 1.4 | 1517 ± 1.4 | 1537.9 ± 1.4
m1 = 0.1014 | 989.502 ± 0.78 | 997.101 ± 0.79 | 992.565 ± 0.78 | 1490.9 ± 1.7 | 1520.2 ± 1.7 | 1540.2 ± 1.7
m1 = 0.2656 | 1010.44 ± 0.81 | 1007.45 ± 0.8 | 1005.51 ± 0.8 | 1511.6 ± 1.7 | 1536.2 ± 1.7 | 1554.5 ± 1.7
m1 = 0.2803 | 1007.11 ± 0.32 | 1005.82 ± 0.32 | 1002.41 ± 0.32 | 1512.3 ± 1.4 | 1536.8 ± 1.4 | 1555.3 ± 1.4
m1 = 0.2869 | 1010.49 ± 0.54 | 1005.51 ± 0.53 | 1001.76 ± 0.52 | 1512.3 ± 1.4 | 1536.8 ± 1.4 | 1555.3 ± 1.4

COCCOCCO [2-(2-methoxyethoxy)ethanol] + O
Settings | mass density, 288.15 K [kg/m3] | mass density, 298.15 K [kg/m3] | mass density, 308.15 K [kg/m3] | speed of sound, 288.15 K [m/s] | speed of sound, 298.15 K [m/s] | speed of sound, 308.15 K [m/s]
m1 = 0.1113 | 999.888 ± 0.52 | 997.716 ± 0.52 | 994.536 ± 0.52 | 1477.1 ± 1.4 | 1505.1 ± 1.4 | 1526.8 ± 1.4
m1 = 0.1346 | 1000.02 ± 0.52 | 997.84 ± 0.52 | 994.655 ± 0.52 | 1480.4 ± 1.4 | 1508.5 ± 1.4 | 1529.1 ± 1.4
m1 = 0.3285 | 1001.11 ± 0.52 | 998.835 ± 0.52 | 995.615 ± 0.52 | 1494.2 ± 1.4 | 1519.7 ± 1.4 | 1538.8 ± 1.4
m1 = 0.4005 | 1001.49 ± 0.52 | 999.182 ± 0.52 | 995.953 ± 0.52 | 1498.2 ± 1.4 | 1523.4 ± 1.4 | 1541.4 ± 1.4
m1 = 0.62 | 1002.6 ± 0.52 | 1000.22 ± 0.52 | 996.952 ± 0.52 | 1516.3 ± 1.4 | 1537.8 ± 1.4 | 1553.6 ± 1.4
m1 = 0.7114 | 1003.02 ± 0.53 | 1000.62 ± 0.52 | 997.341 ± 0.52 | 1523.8 ± 1.4 | 1544.5 ± 1.4 | 1558.8 ± 1.4
m1 = 0.9906 | 1004.26 ± 0.53 | 1001.81 ± 0.52 | 998.476 ± 0.53 | 1539.6 ± 1.4 | 1556.8 ± 1.4 | 1569.1 ± 1.4
m1 = 1.052 | 1004.52 ± 0.53 | 1002.03 ± 0.52 | 993.955 ± 0.52 | 1548 ± 1.5 | 1497.7 ± 1.4 | 1574.7 ± 1.6

COCCOCCOCCO [2-[2-(2-methoxyethoxy)ethoxy]ethanol] + O
Settings | mass density, 288.15 K [kg/m3] | mass density, 298.15 K [kg/m3] | mass density, 308.15 K [kg/m3] | speed of sound, 288.15 K [m/s] | speed of sound, 298.15 K [m/s] | speed of sound, 308.15 K [m/s]
m1 = 0.0992 | 1000.76 ± 0.79 | 998.595 ± 0.79 | 995.371 ± 0.78 | 1476.9 ± 1.7 | 1505.2 ± 1.7 | 1526.8 ± 1.7
m1 = 0.2191 | 1002.54 ± 0.79 | 1000.32 ± 0.79 | 997.022 ± 0.79 | 1490.1 ± 1.7 | 1516.8 ± 1.7 | 1535.9 ± 1.7
m1 = 0.4289 | 1005.5 ± 0.8 | 1003.2 ± 0.79 | 999.755 ± 0.79 | 1510.7 ± 1.7 | 1533 ± 1.7 | 1549.8 ± 1.7
m1 = 0.5088 | 1006.57 ± 0.8 | 1004.24 ± 0.8 | 1000.75 ± 0.79 | 1517.7 ± 1.7 | 1539.4 ± 1.7 | 1554.7 ± 1.7
m1 = 0.5825 | 1007.53 ± 0.8 | 1005.17 ± 0.8 | 1001.64 ± 0.79 | 1525 ± 1.7 | 1544.9 ± 1.7 | 1559.5 ± 1.7
m1 = 0.7077 | 1009.12 ± 0.81 | 1006.71 ± 0.8 | 1003.1 ± 0.79 | 1537.2 ± 1.7 | 1555.8 ± 1.7 | 1568.3 ± 1.7
m1 = 0.7956 | 1010.2 ± 0.81 | 1007.75 ± 0.8 | 1004.09 ± 0.8 | 1543.9 ± 1.7 | 1560.4 ± 1.7 | 1572.2 ± 1.7
m1 = 0.9789 | 1012.35 ± 0.81 | 1009.85 ± 0.81 | 1006.07 ± 0.8 | 1467.3 ± 2 | 1570.5 ± 1.8 | 1580 ± 1.7

COCCO [2-methoxyethan-1-ol] + O
Settings | mass density, 288.15 K [kg/m3] | mass density, 298.15 K [kg/m3] | mass density, 308.15 K [kg/m3] | speed of sound, 288.15 K [m/s] | speed of sound, 298.15 K [m/s] | speed of sound, 308.15 K [m/s]
m1 = 0.1766 | 999.359 ± 0.31 | 997.221 ± 0.31 | 994.075 ± 0.31 | 1475.3 ± 1.4 | 1504.9 ± 1.4 | 1526.1 ± 1.4
m1 = 0.3377 | 999.461 ± 0.31 | 997.304 ± 0.31 | 994.169 ± 0.31 | 1487.3 ± 1.4 | 1511.2 ± 1.4 | 1531.6 ± 1.4
m1 = 0.3987 | 999.495 ± 0.31 | 997.331 ± 0.31 | 994.202 ± 0.31 | 1486.9 ± 1.4 | 1513.8 ± 1.4 | 1533.1 ± 1.4
m1 = 0.5117 | 999.548 ± 0.31 | 997.377 ± 0.31 | 994.256 ± 0.31 | 1492.9 ± 1.4 | 1518 ± 1.4 | 1537 ± 1.4
m1 = 0.6355 | 999.593 ± 0.31 | 997.421 ± 0.31 | 994.305 ± 0.31 | 1498.1 ± 1.4 | 1522.9 ± 1.4 | 1540.5 ± 1.4
m1 = 0.7947 | 999.638 ± 0.31 | 997.462 ± 0.31 | 994.361 ± 0.31 | 1506.8 ± 1.4 | 1529.3 ± 1.4 | 1546 ± 1.4
m1 = 1.012 | 999.666 ± 0.31 | 997.507 ± 0.31 | 994.412 ± 0.31 | 1518.1 ± 1.4 | 1539.1 ± 1.4 | 1553.7 ± 1.4
